Values joined by “and” are separate entries in the source; they are usually repeats but may differ in a detail not shown here. Equal entries are not always repeated. Structures can show the parent of a compound that is named as a salt. Where two headings read alike, the source gives them in different places.
Key:
[1] = cited from earlier work
[2] = tested on: Mycobacterium tuberculosis ATCC 27294; assay: FASTPlaqueTB (FPTB) plaque assay after timed exposure of M. tuberculosis to CB-18 (Example 1); type: cell-based; conditions: for Plaque formation following infection in Tris buffer and no pre-culture / Plaque formation following overnight pre-culture in FPTB nutrient broth: duplicates a, b
Description: In an effort to establish the effect of exposure to CB-18 on the M. tuberculosis type strain ATCC 27294, and any relationship of such an effect to time, the following experiment was performed using the FASTPlaqueTB™ (FPTB) assay manufactured by Biotec Laboratories Ltd (Ipswich, Suffolk, U.K.): A 0.5 MacFarland stock of M. tuberculosis was manufactured as described by Thornton, C. G., et al, Jour. Clin. Microbiol. 36:2004-2013 (1998), and a 1 ml portion were transferred to a 50 ml conical tubes containing 50 mM Tris-HCl pH 7.5 @ 25° C., 66 mM NaCl, 1 mM CB-18, and 0.025% N-acetyl-L-cysteine (NALC). From this tube was taken duplicate 500 μl aliquots at 0, 30, 60, 120, and 180 minutes and immediately serially diluted 400-fold to form two dilution series. In the first series (FIG. 1a), serial dilutions were made in nutrient broth (i.e., FPTB broth) provided by the manufacturer. In the second series (FIG. 1b), serial dilutions were made in a 50 mM Tris-HCl pH 7.5 @ 25° C., 66 mM NaCl buffer that had been supplemented with calcium chloride (CaCl2) to a final concentration of 2 mM.
The first series of time point-dilutions were then incubated at 37° C. overnight in FPTB broth prior to being assayed with the FPTB plaque assay. The second series of time point-dilutions were immediately subjected to analysis using the FPTB plaque assay.

[3] = tested on: Mycobacterium tuberculosis ATCC 27294; assay: FPTB plaque assay with CB-18 present during infection (Example 2); type: cell-based; conditions: for Plaque formation following infection in Tris buffer and no pre-culture / Plaque formation following overnight pre-culture in FPTB nutrient broth: duplicates a, b; for Concentration present during infection that does not interfere with the assay: M. tuberculosis ATCC 27294
[4] = tested on: M. tuberculosis type strain ATCC 27294; conditions: cited from earlier work
[5] = tested on: M. tuberculosis; assay: FPTB plaque assay after exposure to CB-18 with carry-over into the infection buffer (Example 3); type: cell-based, Mycobacterium tuberculosis; conditions: 1 mM CB-18, 90 minutes at 37° C.; replicates 1-3, tubes a, b
Description: To examine the effects of both exposing M. tuberculosis to CB-18, and having CB-18 carried over into the infection buffer, the following experiment was performed: A 0.5 MacFarland stock of M. tuberculosis was manufactured as described by Thornton, C. G., et al, Jour. Clin. Microbiol. 36:2004-2013 (1998), and a 0.5 ml portions were transferred to quadruplicate 50 ml conical tubes (FIG. 3). One pair of tubes simply contained 50 mM Tris-HCl pH 7.5 @ 25° C., 66 mM NaCl, and 0.025% NALC, while the other pair of tubes contained the same buffer supplemented with 1 mM CB-18. All tubes were incubated for 90 minutes at 37° C. and then diluted with sterile water to a final volume of 50 ml. In those tubes without CB-18 present, duplicate 250 μl portions were added directly to 1 ml of FPTB nutrient broth. From those tubes that contained CB-18, triplicate 250 μl portions were added to 50 mM Tris-HCl pH 7.5 @ 25° C., 66 mM NaCl, 2 mM CaCl2 buffer. All tubes were then immediately subjected to analysis using the FPTB plaque assay (i.e., the plaque assay was performed without pre-culture).

[6] = tested on: mycobacteriophage D-29 in M. tuberculosis; conditions: cited from earlier work
[7] = 1 mM CB-18, time of exposure 0 min
[8] = 1 mM CB-18, time of exposure 30 min
[9] = 1 mM CB-18, time of exposure 60 min
[10] = 1 mM CB-18, time of exposure 120 min
[11] = 1 mM CB-18, time of exposure 180 min

NC(=O)CNCCS(=O)(=O)O [ACES, N-(2-Acetamido)-2-aminoethanesulfonic acid]
pKa [1]: 6.78

NC(=O)CN(CC(=O)O)CC(=O)O [ADA, N-(2-Acetamido)iminodiacetic acid]
pKa [1]: 6.59

CCCCCCCCCCCCCCCCCC[N+](C)(C)CCCC(=O)[O-] [CB-18, N-(3-carboxypropyl)-N,N-dimethyl-1-octadecanaminium, inner salt]
Plaque formation following infection in Tris buffer and no pre-culture [2, 7]: 132 and 121
Plaque formation following overnight pre-culture in FPTB nutrient broth [2, 7]: >300
Plaque formation following infection in Tris buffer and no pre-culture [2, 8]: 145 and 167
Plaque formation following overnight pre-culture in FPTB nutrient broth [2, 8]: >300
Plaque formation following infection in Tris buffer and no pre-culture [2, 9]: 100 and 90
Plaque formation following overnight pre-culture in FPTB nutrient broth [2, 9]: >300
Plaque formation following infection in Tris buffer and no pre-culture [2, 10]: 155 and 140
Plaque formation following overnight pre-culture in FPTB nutrient broth [2, 10]: >300
Plaque formation following infection in Tris buffer and no pre-culture [2, 11]: 213 and 221
Plaque formation following overnight pre-culture in FPTB nutrient broth [2, 11]: >300
Effect of exposure on D-29 mycobacteriophage plaque assay ([2]; 1 mM CB-18 for 30, 60, 120, and 180 minutes): no deleterious effects
Plaque formation following infection in Tris buffer and no pre-culture ([3]; CB-18 5 μg/ml present during infection): 171 and 191
Plaque formation following overnight pre-culture in FPTB nutrient broth ([3]; CB-18 5 μg/ml): >300
Plaque formation following infection in Tris buffer and no pre-culture ([3]; CB-18 10 μg/ml present during infection): 204 and 186
Plaque formation following overnight pre-culture in FPTB nutrient broth ([3]; CB-18 10 μg/ml): >300
Plaque formation following infection in Tris buffer and no pre-culture ([3]; CB-18 20 μg/ml present during infection): 181 and 198
Plaque formation following overnight pre-culture in FPTB nutrient broth ([3]; CB-18 20 μg/ml): >300
Plaque formation following overnight pre-culture in FPTB nutrient broth ([3]; CB-18 40 μg/ml): >300
Concentration present during infection that does not interfere with the assay [3]: ≤ 20 µg/mL
Concentration present during infection that does not interfere with the assay ([3]; conversion of 20 μg/ml): ≤ 52 µM
Growth characteristics in culture media ([4]; CB-18 present at 20 μg/ml in the culture media): significantly affected
Tuberculocidal activity ([4]; time-dependent killing): has tuberculocidal activity
Plaque formation following processing in CB-18, no pre-culture, and infection in Tris-CaCl2 buffer [5]: >300

O=S(=O)(O)CCCCN1CCN(CCO)CC1 [HEPBS, N-(2-Hydroxyethyl)piperazine-N′-(4-butanesulfonic acid)]
pKa [1]: 8.30

O=S(=O)(O)CCCCN1CCOCC1 [MOBS, 4-(N-Morpholino)butanesulfonic acid]
pKa [1]: 7.60

O=S(=O)(O)CCN1CCN(CCS(=O)(=O)O)CC1 [PIPES, piperazine-1,4-bis(2-ethanesulfonic acid)]
pKa [1]: 6.76

O=S(=O)(O)CC(O)CN1CCN(CC(O)CS(=O)(=O)O)CC1 (stereo not shown) [POPSO, piperazine-N,N′-bis(2-hydroxypropanesulfonic acid)]
pKa [1]: 7.80

CCCCCCCC/C=C\CCCCCCCC(=O)OCCOCC(OCCO)C1OCC(OCCO)C1OCCO (stereo not shown) [Tween 80]
Concentration above which propagation of mycobacteriophage D-29 in M. tuberculosis is interfered with [6]: above 0.0012%
Concentration above which propagation of mycobacteriophage D-29 in M. tuberculosis is interfered with ([6]; printed as conversion of […]): > 1 EM
